Among the data in patent US10987359B2, “Oxadiazepinone derivatives and methods of treating hepatitis B infections” (priority 2016, dated 2021) are EC50 values, retold here.

Molecules are shown by their SMILES. Like-named read-outs stand apart in the source and are kept apart here.

The assay has as its system HBV. Description: HBV replication inhibition assay (BDNA assay) in HepG2.2.15 cells. The conditions noted are these: HepG2.2.15 cells, read-out: DNA EC50. It is filed as cell-based. The essentials: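 HepG2.2.15 cells with stably integrated HBV were treated with serially diluted compounds at 0.5% DMSO for 6 days, with medium and compound refreshed at day 3. Encapsidated HBV DNA from DNase-treated supernatant was quantified by branched DNA assay. EC50 came from % inhibition versus DMSO, fitted non-linearly.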

The mark [1] stands for this setting: Hepatitis B virus, HepG2.2.15, HBV replication assay (BDNA assay).
Setting [2] is: HBV replication assay (BDNA assay).

For `CC[C@@H]1Cc2nn3c(c2CN1C(=O)Nc1ccc(F)c(Cl)c1)C(=O)N(C)O[C@H](CO)C3` (stereo in doubt) [Compound 109_D2, (4S*,9R*)—N-(3-chloro-4-fluorophenyl)-9-ethyl-4-(hydroxymethyl)-2-methyl-1-oxo-1,4,5,8,9,11-hexahydropyrido[4′,3′:3,4]pyrazolo[5,1-d][1,2,5]oxadiazepine-10(2H)-carboxamide], the EC50 (in general, the midpoint of the concentration-response curve) under setting [1] lay in the range of 0.1 to 0.5 µM.
For the compound `CCN1OC(CO)Cn2nc3c(c2C1=O)CN(C(=O)Nc1ccc(F)c(Cl)c1)CC3` (single isomer, unassigned) [Compound 060_E1, (S*)—N-(3-chloro-4-fluorophenyl)-2-ethyl-4-(hydroxymethyl)-1-oxo-1,4,5,8,9,11-hexahydropyrido[4′,3′:3,4]pyrazolo[5,1-d][1,2,5]oxadiazepine-10(2H)-carboxamide], under setting [1], the 50% effective concentration (EC50) lay in the range of 0.001 to 0.1 µM.
For `CC(=O)NCC1Cn2nc3c(c2C(=O)N(C)O1)CN(C(=O)Nc1ccc(F)c(Cl)c1F)CC3` (single isomer, unassigned) [Compound 169_E1, (S*)-4-(acetamidomethyl)-N-(3-chloro-2,4-difluorophenyl)-2-methyl-1-oxo-1,4,5,8,9,11-hexahydropyrido[4′,3′:3,4]pyrazolo[5,1-d][1,2,5]oxadiazepine-10(2H)-carboxamide], the 50% effective concentration (EC50) under setting [1] was 0.001 to 0.1 µM.
In the case of `CC1Cc2nn3c(c2CN1C(=O)Nc1cccc(Cl)c1)C(=O)N(C)OC(CO)C3` (centres unmarked) [Compound 070, N-(3-chlorophenyl)-4-(hydroxymethyl)-2,9-dimethyl-1-oxo-5,8,9,11-tetrahydro-4H-pyrido[2,3]pyrazolo[2,4-d][1,2,5]oxadiazepine-10-carboxamide], the concentration giving a half-maximal response (EC50) under setting [1] lay within 0.001 to 0.1 µM.
Take `CCC(=O)NCC1Cn2nc3c(c2C(=O)N(C)O1)CN(C(=O)Nc1ccc(F)c(Cl)c1)CC3` (centres unmarked) [Compound 197, N-(3-chloro-4-fluorophenyl)-2-methyl-1-oxo-4-(propionamidomethyl)-1,4,5,8,9,11-hexahydropyrido[4′,3′:3,4]pyrazolo[5,1-d][1,2,5]oxadiazepine-10(2H)-carboxamide]: the concentration for a half-maximal effect (EC50) under setting [1] was in the range of 0.001 to 0.1 µM.
Turning to `C[C@@H]1Cc2nn3c(c2CN1C(=O)Nc1ccc(F)c(C(F)(F)F)c1)C(=O)N(C)OC(CN(C)C)C3` (stereo in doubt) [Compound 098_D2, (4R*,9R)-4-((dimethylamino)methyl)-N-(4-fluoro-3-(trifluoromethyl)phenyl)-2,9-dimethyl-1-oxo-1,4,5,8,9,11-hexahydropyrido[4′,3′:3,4]pyrazolo[5,1-d][1,2,5]oxadiazepine-10(2H)-carboxamide], the EC50 under setting [2] was in the range of 0.001 to 0.1 µM.
Take `CNC(=O)C1Cn2nc3c(c2C(=O)N(C)O1)CN(C(=O)Nc1ccc(F)c(C#N)c1)[C@H](C)C3` (stereo in doubt) [Compound 112_D2, (4R*,9R)—N10-(3-cyano-4-fluorophenyl)-N4,2,9-trimethyl-1-oxo-1,4,5,8,9,11-hexahydropyrido[4′,3′:3,4]pyrazolo[5,1-d][1,2,5]oxadiazepine-4,10(2H)-dicarboxamide]: the half-maximal effective concentration (EC50) under setting [2] was in the range of 0.001 to 0.1 µM.
As to `C[C@@H]1Cc2nn3c(c2CN1C(=O)Nc1ccc(F)c(Cl)c1)C(=O)N(C)OC(CF)C3` (single isomer, unassigned) [Compound 088_E1, (4S*,9R)—N-(3-chloro-4-fluorophenyl)-4-(fluoromethyl)-2,9-dimethyl-1-oxo-1,4,5,8,9,11-hexahydropyrido[4′,3′:3,4]pyrazolo[5,1-d][1,2,5]oxadiazepine-10(2H)-carboxamide], the concentration for a half-maximal effect (EC50) under setting [1] is 0.001 to 0.1 µM.
On to `CC(=O)NCC1Cn2nc3c(c2C(=O)N(C)O1)CN(C(=O)Nc1ccc(F)c(C(F)(F)F)c1)[C@H](C)C3` (single isomer, unassigned) [Compound 177_D1, (4S*,9R)-4-(acetamidomethyl)-N-(4-fluoro-3-(trifluoromethyl)phenyl)-2,9-dimethyl-1-oxo-1,4,5,8,9,11-hexahydropyrido[4′,3′:3,4]pyrazolo[5,1-d][1,2,5]oxadiazepine-10(2H)-carboxamide], for which the EC50 under setting [1] is 0.001 to 0.1 µM.
As for `C[C@@H]1Cc2nn3c(c2CN1C(=O)Nc1ccc(F)c(Br)c1F)C(=O)N(C)OC(CO)C3` (single isomer, unassigned) [Compound 092_E1, (4S*,9R)—N-(3-bromo-2,4-difluorophenyl)-4-(hydroxymethyl)-2,9-dimethyl-1-oxo-1,4,5,8,9,11-hexahydropyrido[4′,3′:3,4]pyrazolo[5,1-d][1,2,5]oxadiazepine-10(2H)-carboxamide], under setting [1], the EC50 was 0.001 to 0.1 µM.
For the compound `CC1CN(C(=O)Nc2cccc(Cl)c2)Cc2c1nn1c2C(=O)N(C)OC(CO)C1` (centres unmarked) [Compound 047, N-(3-chlorophenyl)-4-(hydroxymethyl)-2,8-dimethyl-1-oxo-1,4,5,8,9,11-hexahydropyrido[4′,3′:3,4]pyrazolo[5,1-d][1,2,5]oxadiazepine-10(2H)-carboxamide], under setting [1], the EC50 fell in the range of 0.1 to 0.5 µM.
Same read-out and setting: with `C[C@@H]1Cc2nn3c(c2CN1C(=O)Nc1ccc(F)c(Cl)c1)C(=O)N(C)OC(CN(C)C)C3` (single isomer, unassigned) [Compound 093_D1, (4S*,9R)—N-(3-chloro-4-fluorophenyl)-4-((dimethylamino)methyl)-2,9-dimethyl-1-oxo-1,4,5,8,9,11-hexahydropyrido[4′,3′:3,4]pyrazolo[5,1-d][1,2,5]oxadiazepine-10(2H)-carboxamide] the figure was 0.001 to 0.1 µM.
Turning to `CN(C)C(=O)C1Cn2nc3c(c2C(=O)N(C)O1)CN(C(=O)Nc1ccc(F)c(Cl)c1)CC3` (centres unmarked) [Compound 074, N10-(3-chloro-4-fluoro-phenyl)-N4,N4,2-trimethyl-1-oxo-5,8,9,11-tetrahydro-4H-pyrido[2,3]pyrazolo[2,4-d][1,2,5]oxadiazepine-4,10-dicarboxamide], the EC50 under setting [1] lay within 0.001 to 0.1 µM.
In the case of `C[C@@H]1Cc2nn3c(c2CN1C(=O)Nc1ccc(F)c(Br)c1)C(=O)N(C)OC(COCC(F)F)C3` (stereo in doubt) [Compound 122_D1, (4S*,9R)—N-(3-bromo-4-fluorophenyl)-4-((2,2-difluoroethoxy)methyl)-2,9-dimethyl-1-oxo-1,4,5,8,9,11-hexahydropyrido[4′,3′:3,4]pyrazolo[5,1-d][1,2,5]oxadiazepine-10(2H)-carboxamide], the concentration giving a half-maximal response (EC50) under setting [1] was in the range of 0.001 to 0.1 µM.
Turning to `CN1OC(CF)Cn2nc3c(c2C1=O)CN(C(=O)Nc1ccc(F)c(C(F)(F)F)c1)CC3` (single isomer, unassigned) [Compound 039_E1, (S*)—N-(4-fluoro-3-(trifluoromethyl)phenyl)-4-(fluoromethyl)-2-methyl-1-oxo-1,4,5,8,9,11-hexahydropyrido[4′,3′:3,4]pyrazolo[5,1-d][1,2,5]oxadiazepine-10(2H)-carboxamide], the EC50 under setting [1] fell in the range of 0.001 to 0.1 µM.
In the case of `Cc1cc(NC(=O)N2CCc3nn4c(c3C2)C(=O)N(C)OC(CO)C4)c(F)cc1F` (single isomer, unassigned) [Compound 143_E1, (S*)—N-(2,4-difluoro-5-methylphenyl)-4-(hydroxymethyl)-2-methyl-1-oxo-1,4,5,8,9,11-hexahydropyrido[4′,3′:3,4]pyrazolo[5,1-d][1,2,5]oxadiazepine-10(2H)-carboxamide], the half-maximal effective concentration (EC50) under setting [1] fell in the range of 0.001 to 0.1 µM.
As for `C[C@@H]1Cc2nn3c(c2CN1C(=O)Nc1ccc(F)c(Cl)c1)C(=O)N(C)N=C(CO)C3` [Compound 235, (R)-N-(3-chloro-4-fluorophenyl)-4-(hydroxymethyl)-2,9-dimethyl-1-oxo-1,2,5,8,9,11-hexahydro-10H-pyrido[4′,3′:3,4]pyrazolo[5,1-d][1,2,5]triazepine-10-carboxamide], the EC50 under setting [1] lay in the range of 0.001 to 0.1 µM.
`CNC(=O)C1Cn2nc3c(c2C(=O)N(C)O1)CN(C(=O)Nc1ccc(F)c(C#N)c1F)[C@H](C)C3` (stereo in doubt) [Compound 156_D2, (4R*,9R)—N10-(3-cyano-2,4-difluorophenyl)-N4,2,9-trimethyl-1-oxo-1,4,5,8,9,11-hexahydropyrido[4′,3′:3,4]pyrazolo[5,1-d][1,2,5]oxadiazepine-4,10(2H)-dicarboxamide]: the 50% effective concentration (EC50) under setting [1] fell in the range of 0.001 to 0.1 µM.
On to `CC[C@H]1Cc2nn3c(c2CN1C(=O)Nc1ccc(F)c(Cl)c1)C(=O)N(C)O[C@@H](CO)C3` (stereo in doubt) [Compound 109_D4, (4R*,9S*)—N-(3-chloro-4-fluorophenyl)-9-ethyl-4-(hydroxymethyl)-2-methyl-1-oxo-1,4,5,8,9,11-hexahydropyrido[4′,3′:3,4]pyrazolo[5,1-d][1,2,5]oxadiazepine-10(2H)-carboxamide], for which the EC50 under setting [1] fell in the range of 0.1 to 0.5 µM.
The same measure, in the same setting: with `C[C@@H]1Cc2nn3c(c2CN1C(=O)Nc1ccc(F)c(Br)c1)C(=O)N(C)N=C(CO)C3` [Compound 234, (R)-N-(3-bromo-4-fluorophenyl)-4-(hydroxymethyl)-2,9-dimethyl-1-oxo-1,2,5,8,9,11-hexahydro-10H-pyrido[4′,3′:3,4]pyrazolo[5,1-d][1,2,5]triazepine-10-carboxamide] the figure was 0.001 to 0.1 µM.
Take `CN1OC(CO)Cn2nc3c(c2C1=O)CN(C(=O)Nc1ccc(F)c(Cl)c1F)CC3` (centres unmarked) [Compound 007, N-(3-chloro-2,4-difluorophenyl)-4-(hydroxymethyl)-2-methyl-1-oxo-1,4,5,8,9,11-hexahydropyrido[4′,3′:3,4]pyrazolo[5,1-d][1,2,5]oxadiazepine-10(2H)-carboxamide]: the concentration for a half-maximal effect (EC50) under setting [1] lay in the range of 0.001 to 0.1 µM.
Turning to `CN1OC(CO)Cn2nc3c(c2C1=O)CN(C(=O)Nc1cc(Br)c(F)cc1F)CC3` (centres unmarked) [Compound 014, N-(5-bromo-2,4-difluorophenyl)-4-(hydroxymethyl)-2-methyl-1-oxo-1,4,5,8,9,11-hexahydropyrido[4′,3′:3,4]pyrazolo[5,1-d][1,2,5]oxadiazepine-10(2H)-carboxamide], the concentration giving a half-maximal response (EC50) under setting [1] fell in the range of 0.001 to 0.1 µM.
As to `C[C@@H]1Cc2nn3c(c2CN1C(=O)Nc1cc(Br)c(F)cc1F)C(=O)N(C)OC(CN(C)C)C3` (stereo in doubt) [Compound 100_D1, (4S*,9R)—N-(5-bromo-2,4-difluorophenyl)-4-((dimethylamino)methyl)-2,9-dimethyl-1-oxo-1,4,5,8,9,11-hexahydropyrido[4′,3′:3,4]pyrazolo[5,1-d][1,2,5]oxadiazepine-10(2H)-carboxamide], the EC50 under setting [2] lay in the range of 0.1 to 0.5 µM.
